Measured values reported in patent US7390826B2, “Inhibitors of animal cell motility and growth” (The Board of Trustees of The University of Illinois, priority 2002, dated 2008).
Where two headings read alike, the source gives them in different places.

Columns and labels:
MDCK cells = assay: MDCK cell proliferation; assay type: cell-based, canine; details: 50 μM
Method: In FIG. 2A, cells were plated at low cell density (1×10^4 cells/mL) and allowed to attach and begin to grow for 48 hours prior to the start of experiment. The treatments were 0.1% DMSO (control, n=9 cultures), 50 μM compound 1 (n=8), or 50 μM compound 11 (n=7). Reported values are mean with SEM of the percent increase in cell number from 0 to 48 hours after addition of compound 1.
The values were mean with SEM of the percent increase in cell number another 48 hours after replacement of medium containing 50 μM compound 1 (n=8 cultures) or 0.1% DMSO (n=9) with fresh medium containing 0.1% DMSO.
MDCK cell proliferation: MDCK cells were plated on multiwell tissue culture plates at low density ([…]). Cells were allowed to attach and begin to grow for 48 hours before the start of the experiment. Fresh medium with or without compound was then added, and cells were incubated for 48 hours. At both 0 and 48 hours, some of the parallel wells for control and compound treatments were washed twice with PBS and treated with trypsin/EDTA solution to detach the cells. An equal volume of medium was added, cells were collected and counted using a hemacytometer. For reversibility, some of the parallel cultures for both control and compound treatments were grown another 48 hours after washing twice with PBS and replacing medium with fresh compound-free medium. At both the time of washing out and 48 hours later, some of the parallel wells for control and compound treatments were washed twice with PBS, detached from the plates with trypsin/EDTA solution, and the number of cells was counted.

Keller sandwich explants = assay: convergent extension in Keller sandwich explants; parameters: species or system frog
Source text: It is hypothesized, but not relied upon herein, that the effects of compound 1 are mediated by an activity or activities after stage 9 during gastrulation and neurulation, and its effects on blastopore closure and anteroposterior elongation are consistent with inhibition of convergent extension. […] Therefore, compound 1 affects cell motility, cell polarity, and/or cell adhesion in the embryo.

[1] = test system: Escherichia coli (DH5a strain); assay: bacterial growth (absorbance at 600 nm); assay type: cell-based; details: 50 μM
Method: (§1) Reported values are the mean ±SEM for triplicate samples.
(§2) Bacterial growth: Staphylococcus aureus or Escherichia coli (DH5a strain) were grown in Luria-Bertani (LB) medium for 12 hours at 37° C. in a shaking incubator. Dilutions into fresh LB medium with 0.1% DMSO (solvent carrier control) or 50 μM compound 1 were made to an absorbance at 600 nm (A600) of about 0.1. Bacteria were incubated at 37° C. with shaking during the experiment, and A600 measurements were made at set time intervals during log growth phase until the plateau phase was reached.

Staphylococcus aureus = assay: bacterial growth (absorbance at 600 nm); assay type: cell-based; details: 50 μM; for absorbance at 600 nm: mean ± SEM
Method: as §1, §2

Xenopus laevis embryos = assay: frog embryo morphogenesis assay (scoring of developmental defects); assay type: in vivo; details: for EC50: Xenopus laevis, 72 h
Source text: In order to identify compounds that specifically perturb morphogenesis in the frog embryo, a suitable method for scoring embryos by characteristic defects was developed. A useful starting point was the “dorso-anterior index” (DAI). The DAI originally was constructed by adding new morphological characteristics to the older “index of axis deficiency” (S. R. Scharf et al., Dev. Biol., 99, 75-87 (1983)). The DAI is a scale of dorsoanterior development wherein embryos are assigned a score based on degree of dorsoanterior phenotype (K. R. Kao et al., Dev. Biol., 127, 64-77 (1988)). The scale encompasses a score of 0 (for the most axis-deficient or ventralized embryos) to 10 (for embryos with the most enhanced dorsoanterior structures), with a score of 5 signifying a normal embryo.
Because the DAI focuses only on dorsoanterior phenotypes, other categories were added to describe possible defects more comprehensively, with an emphasis on characteristics that are easily and unambiguously recognized in intact embryos, and that are diagnostic of possible effects on morphogenesis during gastrulation and neurulation. The most useful and readily scored categories that covered the most frequent deficiencies were: reduced anterior structures and microcephaly, delayed appearance or absence of eye pigmentation, overall shortness along the anteroposterior axis, bent axis, bent tail only, reduced posterior structures/tail, malformed or reduced fins, delayed or failed neural tube closure (neural fold fusion), abnormal pigmentation pattern, ventral swelling (edema), and delayed or abnormal visceral organogenesis and yolk resorption. In addition, blastopore closure, an earlier process that marks the completion of gastrulation, was observed.
In these tests, test compounds were added individually to wells each containing 4-8 embryos in 12-well plates. Embryos at stage 8.5-9, according to the classification of Nieuwkoop and Faber (P. I. Nieuwkoop et al., Normal Table of Xenopus laevis (Daudin). Amsterdam: North-Holland Publ.) (1967)), were used because these are late blastula stages before gastrulation begins at stage 10, which allowed focusing primarily on compounds that affect morphogenetic events in gastrulation and neurulation. These embryos, therefore, have undergone a midblastula transition at stage 8 (cleavage division 12) when zygotic transcription begins (J. Newport et al., Cell, 30, 675-686 (1982); J. Newport et al., Cell, 30, 687-696 (1982)) but have not yet started the morphogenetic movements of gastrulation.
Standard procedures were used in the care of animals, gamete preparation, fertilization of oocytes, and culture of embryos (B. K. Kay et al., Methods in Cell Biology, Volumn 36 (San Diego: Academic Press, Inc.) (1991)). In order to stimulate ovulation, female frogs were injected with 500 units of human chorionic gonadotropin (HCG). Eggs were squeezed from female frogs 12 hours later. Testes were removed from euthanized male frogs that had been primed with 50 units of HCG 4-6 hours earlier. The testes were stored at 4° C. in single strength Marc's Modified Ringer's solution with 50 μg/ml gentamycin and used for no more than 10 days. Small pieces of testes were macerated and spread over eggs for in vitro fertilization in Petri dishes. Fertilized eggs were placed in one-tenth strength Modified Barth's Saline (MBS) with 50 μg/ml gentamycin at constant temperature (19° C.) in a temperature-controlled incubator and development allowed to proceed under these conditions. Embryos were dejellied by briefly swirling them in a solution of 2% (w/v) L-cysteine, pH 8.0. The embryos then were rinsed extensively with one-tenth strength MBS to wash out the cysteine. Experiments were started within an hour of dejellying the embryos.
Experiments were carried out in 12-well flat-bottom polystyrene plates with 4-8 embryos per well in 1.0 ml of one-tenth strength MBS with 50 μg/ml gentamycin at 19° C. […]

SMILES: C/C=C/C(=O)N1C(=O)OC[C@@H]1Cc1ccccc1 [Compound 1, (4S)-3-((E)-2-butenoyl)-4-benzyl-2-oxazolidinone]
- inhibition of MDCK cell proliferation (percent increase in cell number) (MDCK cells; 0 to 48 hours): reversibly inhibited MDCK cell proliferation
- reversibility of inhibition of cell proliferation (MDCK cells; another 48 hours after washing out): reversible
- convergent extension (Keller sandwich explants): inhibits convergent extension
- inhibition of growth of Escherichia coli (Gram-negative) [1]: does not inhibit the growth
- inhibition of growth of Staphylococcus aureus (Gram-positive) (Staphylococcus aureus): does not inhibit the growth
- absorbance at 600 nm (Staphylococcus aureus; 0 hours): 0.117 ± 0.037
- absorbance at 600 nm (Staphylococcus aureus; 1 hours): 0.160 ± 0.056
- absorbance at 600 nm (Staphylococcus aureus; 2 hours): 0.332 ± 0.130
- absorbance at 600 nm (Staphylococcus aureus; 3 hours): 0.615 ± 0.162
- absorbance at 600 nm (Staphylococcus aureus; 4 hours): 0.937 ± 0.181
- absorbance at 600 nm (Staphylococcus aureus; 27 hours): 3.265 ± 0.196
- absorbance at 600 nm (Staphylococcus aureus; 31 hours): 3.608 ± 0.271
- reduction in the length of the tail (Xenopus laevis embryos; 15 μM added at 2-cell stage): evident
- effects on anteroposterior elongation, head and eye development, visceral organogenesis and yolk resorption (Xenopus laevis embryos; 15 μM added at 2-cell stage, 48 hours): significant effects
- anteroposterior length, head development, eye pigmentation, visceral organogenesis and yolk resorption versus control embryos (Xenopus laevis embryos; 15 μM added at stage 8.5-9, 48, 72 or 96 hours after treatment, Student's t-test): significantly different
- exposure before washing out with no significant effect on later development (Xenopus laevis embryos; 15 μM, stage 8.5-9 embryos): up to 9 hours
- exposure resulting in significant defects in postneurula analyses (Xenopus laevis embryos; 15 μM, stage 8.5-9 embryos): ≥ 12 h
- EC50 (Xenopus laevis embryos; read-out: EC50 with respect to the defective phenotype at 72 hr following treatment): 13.9 µM
- EC50 (Xenopus laevis embryos; read-out: log EC50+standard error of log EC50 (converted)): 13.9 µM
- concentration lethal to the embryos (Xenopus laevis embryos; frog embryos): 2 to 3 times the EC50
- blastopore closure in gastrulating embryos (Xenopus laevis embryos; treatment at stage 8.5-9 or 2-cell stage): delayed
